These results are taken from patent US8431540B2, “Modified lysine-mimetic compounds” (Zealand Pharma A/S, priority 2005, dated 2013).

Each structure is given as a SMILES string.

The half-life is the time needed for the level to fall by half in the phase considered.

One series has as its system Male CD-1 mice. In words: Calcium-induced arrhythmia model (time to AV block after CaCl2 infusion). Format: in vivo. The settings on record: compound IV 3 min before CaCl2 infusion (100 mg/kg/min), saline control 62-78. How it is done: Peptides suitable for administration to cardiac cells can be identified in an in vivo model of calcium-induced arrhythmias according to the model of Lynch et al. (1981) J Cardiovasc. Pharmacol. 3: 49-60. Male CD-1 mice are anaesthetized with Ketamine (75 mg/kg) and medetomidine (1 mg/kg) IP. An i.v. cannula is inserted into the tail vein. A lead II ECG signal is recorded continuously by positioning stainless steel ECG electrodes on the right forelimb and […]. The ground electrode is placed on the right hind limb. The signal is amplified and filtered using Gould physiograph components and po-ne-mah data acquisition software. After a 90 sec equilibration period test compound is injected into the tail vein (over 30 seconds). Mice pre-treated with vehicle are tested as control animals. The injection volume is 100 μl/30 g mice in all experiments. Infusion of CaCl2 (30 mg/mL, 0.1 mL/min/30 g mice, 100 mg/kg/min) is started 3 min after IV administration of drug or vehicle (0.9% saline). The time lag to onset of cardiac conduction block is determined as the time from the start of CaCl2 infusion until the first arrhythmic event occurred. The first conduction block is defined as the first RR-interval, larger than or equal to 3 times one RR-interval from the pre-treatment period. The first arrhythmic event occurring is either a second degree AV-block (intermittent failure of the AV conduction characterized by a P-wave without the concomitant QRS complex) or a second degree SA block (prolonged RR-interval and a QRS-complex without a preceding P-wave). Responses are expressed relative to the time until 2nd degree AV-block occurred in vehicle treated mice.
The anti-arrhythmic effect of compounds according to the present teachings was tested in a model of calcium-induced arrhythmias according to the model of Lynch et al., J. Cardiovasc. Pharmacol. (1981), 3: 49-60. Male CD-1 mice were anaesthetized with Ketamine (75 mg/kg) and medetomidine (1 mg/kg) IP. An i.v. cannula was inserted into the tail vein. A lead II ECG signal was recorded continuously by positioning stainless steel ECG electrodes on the right forelimb and […]. The ground electrode was placed on the right hind limb. The signal was amplified and filtered using Gould physiograph components and po-ne-mah data acquisition software. After a 90 sec equilibration period test compound was injected into the tail vein (over 30 seconds). Mice pre-treated with vehicle (0.9% saline) were tested as control animals. The injection volume was 100 μl/30 g mice in all experiments. Infusion of CaCl2 (30 mg/mL, 0.1 mL/min/30 g mice, 100 mg/kg/min) was started 3 min after IV administration of drug or vehicle. The time lag to onset of cardiac conduction block was determined as the time from the start of CaCl2 infusion until the first arrhythmic event occurred. The first conduction block was defined as the first RR-interval, larger/or equal to, 3 times one RR-interval from the pre-treatment period. The first arrhythmic event occurring was either a second degree AV-block (intermittent failure of the AV conduction characterized by a P-wave without the concomitant QRS complex) or a second degree SA block (prolonged RR-interval and a QRS-complex without a preceding P-wave).
Mice pre-treated with vehicle (0.9% saline) were tested on all days as a measure for control level in untreated animal. Injection volume was 100 μL in all experiments. The time lag to onset of arrhythmias was determined as the time from the start of CaCl2 infusion until the first event of conduction block defined as intermittent failure of the SA or AV conduction characterized by delayed P-wave activation (SA block) or by a P-wave without the concomitant QRS complex (AV block). The time lag to onset of AV block is given below in Table 2.

The nature of the next series: Plasma stability assay. The settings on record: male rat plasma (1:1 plasma:pH 7.4 buffer), 1 μM, 37° C., 3 hours.
Series [1] is described as follows: Metabolic stability assay (liver microsomes). The settings on record: male, rat.
Experimental: To predict the stability of the compound under first pass (Phase I) metabolism, compounds of the present teachings were incubated with male rat liver microsomes at 1 μM concentration and 0.5 mg/mL protein concentration at 37° C. After 15 min, the reaction was quenched with cold acetonitrile. The solution was centrifuged and the supernatant was analyzed with LC-MS using the HPLC conditions described in section 3 above.

Experimental for Plasma stability assay: To predict its plasma stability, compounds of the present teachings were incubated in male rat plasma (1:1 plasma:pH 7.4 buffer) at 1 μM concentration at 37° C. After 3 hours, the reaction was quenched with cold acetonitrile. The solution was centrifuged and the supernatant was analyzed with LC-MS using the following HPLC conditions: Thermo Hypersil-Keystone Aquasil C18 column (50 mm×2.1 mm, 5 μM) at ambient temperature; Solvent A: 0.1% formic acid in water; Solvent B: 0.1% formic acid in acetonitrile; solvent gradient: 100% A to 50% A over 2.5 min, to 10% A over 1.5 min, and returning to 100% A and re-equilibrating for 1.5 min; flowrate: 0.8 mL/min. The percent of the compound remaining was calculated by dividing the 3-hour incubation sample LC-MS signal area counts by the time=0 area counts.

Take `O=C(N[C@@H]1C[C@@H](C(=O)O)N(C(=O)CNC(=O)C(F)(F)F)C1)c1ccccc1` [Compound 82, (2S,4R) 4-benzamido-1-(2-(2,2,2-trifluoroacetamido)acetyl)pyrrolidine-2-carboxylic acid]: the “Time to AV block” value in the series on Male CD-1 mice worked out at 113.8 s. Also, the “% Remaining” value in the series “Plasma stability assay” is reported as 34%. The same compound returned a half-life at 1 μM in series [1] of more than 30 min.
Turning to `NCC(=O)N1C[C@H](NC(=O)c2ccccc2)C[C@H]1C(=O)NC1CCC1` [Compound 73, (2S,4R) 1-(2-aminoacetyl)-4-benzamido-N-cyclobutylpyrrolidine-2-carboxamide], the “% Remaining” value in the series “Plasma stability assay” is recorded as 95%. Also, the half-life at 1 μM in series [1] is more than 30 min.
For `NCC(=O)Nc1cc(NC(=O)c2ccccc2)cc(C(=O)O)c1` [Compound 26, 3-(2-Amino-acetylamino)-5-benzoylamino-benzoic acid], the “Time to AV block” value in the series with Male CD-1 mice is 122.8 s.
With `O=CNCC(=O)N1C[C@H](NC(=O)c2ccccc2)C[C@H]1C(=O)O` [Compound 85, (2S,4R) 4-benzamido-1-(2-formamidoacetyl)pyrrolidine-2-carboxylic acid], the “% Remaining” value in the series “Plasma stability assay” worked out at 107%.
On to `O=C(N[C@@H]1C[C@@H](C(=O)O)N(C(=O)CO)C1)c1ccccc1` [Compound 52, (2S,4R) 4-Benzoylamino-1-(2-hydroxy-acetyl)-pyrrolidine-2-carboxylic acid], for which the “Time to AV block” value in the series with Male CD-1 mice stood at 135.6 s.
Regarding `NC(=O)C1N(C(=O)CO)CCN1C(=O)c1ccccc1` (stereo not drawn) [Compound 56, 1-Benzoyl-3-(2-hydroxy-acetyl)-imidazolidine-2-carboxylic acid amide], the “Time to AV block” value in the series with Male CD-1 mice turned out to be 128.1 s.
As for `CCC(CC)NC(=O)[C@@H]1C[C@@H](NC(=O)c2ccccc2)CN1C(=O)CN` [Compound 70, (2S,4R) 1-(2-aminoacetyl)-4-benzamido-N-(pentan-3-yl)pyrrolidine-2-carboxamide], the “% Remaining” value in the series “Plasma stability assay” turned out to be 93%. The same compound had a half-life at 1 μM in series [1] of more than 30 min.
For the compound `NCC(=O)N1C[C@H](NC(=O)c2ccccc2)C[C@H]1C(N)=O` [Compound 64, (2S,4R) 1-(2-aminoacetyl)-4-benzamidopyrrolidine-2-carboxamide], the “Time to AV block” value with Male CD-1 mice was 111.7 s. In “Plasma stability assay”, the “% Remaining” value was 27%. Besides, in series [1], the half-life at 1 μM is more than 30 min.
On the same counts, the results for `NCC(=O)N1C[C@H](NC(=O)c2ccccc2)C[C@H]1C(=O)NC1CC1` [Compound 68, (2S,4R) 1-(2-aminoacetyl)-4-benzamido-N-cyclopropylpyrrolidine-2-carboxamide] are 143.8 s, 96% and more than 30 min.
On the same counts, the results for `CCNC(=O)[C@@H]1C[C@@H](NC(=O)c2ccccc2)CN1C(=O)CN` [Compound 66, (2S,4R) 1-(2-aminoacetyl)-4-benzamido-N-ethylpyrrolidine-2-carboxamide] are 122.7 s, 100% and more than 30 min.
On the same counts, the results for `CC(=O)NCC(=O)N1C[C@H](NC(=O)c2ccccc2)C[C@H]1C(=O)O` [Compound 80, (2S,4R) 1-(2-acetamidoacetyl)-4-benzamidopyrrolidine-2-carboxylic acid] are 111.5 s, 100% and more than 30 min.
As to `CNCC(=O)N1C[C@H](NC(=O)c2ccccc2)C[C@H]1C(=O)O` [Compound 81, (2S,4R) 4-benzamido-1-(2-(methylamino)acetyl)-pyrrolidine-2-carboxylic acid], the “Time to AV block” value in the series with Male CD-1 mice worked out at 123.2 s. Besides, in the series “Plasma stability assay”, the “% Remaining” value was 100%. The half-life at 1 μM in series [1] was more than 30 min.
For the compound `CC(C)(C)OC(=O)NCC(=O)N1C[C@H](NC(=O)c2ccccc2)C[C@H]1C(N)=O` [Compound 69, (2S,4R) 4-benzamido-1-(2-(tert-butoxycarbonylamino)acetyl) pyrrolidine-2-carboxamide], the “half-life in male rat liver microsomes” value is reported as “greater than 30 minutes”.
In the case of `CC(C)(C)OC(=O)NCC(=O)N1C[C@H](NC(=O)c2ccccc2)C[C@H]1C(=O)O` [Compound 83, (2S,4R) 4-benzamido-1-(2-(tert-butoxycarbonylamino)acetyl) pyrrolidine-2-carboxylic acid], the “Time to AV block” value in the series on Male CD-1 mice worked out at 110.9 s. Moreover, the “% Remaining” value in “Plasma stability assay” was determined as 100%. In addition, the half-life at 1 μM in series [1] is more than 30 min.
Regarding `O=C(CO)Nc1cc(NC(=O)c2ccccc2)cc(C(=O)O)c1` [Compound 54, 3-Benzoylamino-5-(2-hydroxy-acetylamino)-benzoic acid], the “Time to AV block” value in the series with Male CD-1 mice was found to be 121.7 s.
For the compound `NCC(=O)N1C[C@H](NC(=O)c2ccccc2)C[C@H]1C(=O)NC1CCCC1` [Compound 71, (2S,4R) 1-(2-aminoacetyl)-4-benzamido-N-cyclopentylpyrrolidine-2-carboxamide], the “% Remaining” value in “Plasma stability assay” came out at 90%. Further, the half-life at 1 μM in series [1] is more than 30 min.
With `CN(C)CC(=O)N1C[C@H](NC(=O)c2ccccc2)C[C@H]1C(=O)O` [Compound 84, (2S,4R) 4-benzamido-1-(2-(dimethylamino)acetyl)pyrrolidine-2-carboxylic acid], the “Time to AV block” value in the series on Male CD-1 mice was determined as 108.8 s. In addition, the “% Remaining” value in “Plasma stability assay” is reported as 100%. The compound also returned a half-life at 1 μM in series [1] of more than 30 min.
The like results for `CC(C)NC(=O)[C@@H]1C[C@@H](NC(=O)c2ccccc2)CN1C(=O)CN` [Compound 67, (2S,4R) 1-(2-aminoacetyl)-4-benzamido-N-isopropylpyrrolidine-2-carboxamide] were, in that order, 134.4 s, 100% and more than 30 min.
In the case of `CC(C)CNC(=O)[C@@H]1C[C@@H](NC(=O)c2ccccc2)CN1C(=O)CN` [Compound 72, (2S,4R) 1-(2-aminoacetyl)-4-benzamido-N-isobutylpyrrolidine-2-carboxamide], the “% Remaining” value in “Plasma stability assay” came to 88%. This compound displayed a half-life at 1 μM in series [1] of more than 30 min.
As to `NC(CCC(=O)O)C(=O)N1C[C@H](NC(=O)c2ccccc2)C[C@H]1C(=O)O` (stereo partly drawn) [Compound 6, (2S,4R)1-(2-Amino-4-carboxy-butyryl)-4-benzoylamino-pyrrolidine-2-carboxylic acid], the “Time to AV block” value in the series on Male CD-1 mice is 117.9 s.
As to `CNC(=O)[C@@H]1C[C@@H](NC(=O)c2ccccc2)CN1C(=O)CN` [Compound 65, (2S,4R) 1-(2-aminoacetyl)-4-benzamido-N-methylpyrrolidine-2-carboxamide], in the series with Male CD-1 mice, the “Time to AV block” value turned out to be 115.2 s. For the same compound, the “% Remaining” value in the series “Plasma stability assay” amounted to 87%. In series [1], this compound had a half-life at 1 μM of more than 30 min.
